From patent US7488748B2, “3,6-Disubstituted azabicyclo hexane derivatives as muscarinic receptor antagonists” (Ranbaxy Laboratories Limited, priority 2003, dated 2009)

Assays:
isolated rat bladder = assay: Functional experiments using isolated rat bladder (carbachol-induced contraction); details: isolated rat bladder strips, carbachol concentration response curve, antagonist added 20 min prior
Procedure: Functional Experiments Using Isolated Rat Bladder:
Animals were euthanized by overdose of urethane and whole bladder was isolated and removed rapidly and placed in ice cold Tyrode buffer with the following composition (mMol/L) NaCl 137; KCl 2.7; CaCl2 1.8; MgCl2 0.1; NaHCO3 11.9; NaH2PO4 0.4; Glucose 5:55 and continuously gassed with 95% O2 and 5% CO2.
The bladder was cut into longitudinal strips (3 mm wide and 5-6 mm long) and mounted in 10 ml organ baths at 30° C., with one end connected to the base of the tissue holder and the other end connected to a polygraph through a force displacement transducer. Each tissue was maintained at a constant basal tension of 2 g and allowed to equilibrate for 1 hour during which the PSS was changed every 15 min. At the end of equilibration period the stabilization of the tissue contractile response was assessed with 1 μmol/L of Carbachol consecutively for 2-3 times. Subsequently a cumulative concentration response curve to carbachol (10-9 mol/L to 3×10^−5 mol/L) was obtained. After several washes, once the baseline was achieved, cumulative concentration response curve was obtained in presence of NCE (NCE added 20 min. prior to the second CRC).
The contractile results were expressed as % of control E max. ED50 values were calculated by fitting a non-linear regression curve (Graph Pad Prism). PKB values were calculated by the formula pKB=−log [(molar concentration of antagonist/(dose ratio−1))]
dose ratio=ED50 in the presence of antagonist/ED50 in the absence of antagonist.

M2 muscarinic receptor = molecular target: T1, M2 muscarinic receptor (Rattus norvegicus, UniProt P10980); assay: Radioligand binding assay, [3H]-N-methylscopolamine, rat heart membranes; details: [3H]NMS, Ki by Cheng & Prusoff; for Ki: read-out: Receptor Binding Assay pKi M2 (converted)
T1 construct: from tissue; host or cells: rat heart membrane homogenate
T1 sequence (P10980 1-466): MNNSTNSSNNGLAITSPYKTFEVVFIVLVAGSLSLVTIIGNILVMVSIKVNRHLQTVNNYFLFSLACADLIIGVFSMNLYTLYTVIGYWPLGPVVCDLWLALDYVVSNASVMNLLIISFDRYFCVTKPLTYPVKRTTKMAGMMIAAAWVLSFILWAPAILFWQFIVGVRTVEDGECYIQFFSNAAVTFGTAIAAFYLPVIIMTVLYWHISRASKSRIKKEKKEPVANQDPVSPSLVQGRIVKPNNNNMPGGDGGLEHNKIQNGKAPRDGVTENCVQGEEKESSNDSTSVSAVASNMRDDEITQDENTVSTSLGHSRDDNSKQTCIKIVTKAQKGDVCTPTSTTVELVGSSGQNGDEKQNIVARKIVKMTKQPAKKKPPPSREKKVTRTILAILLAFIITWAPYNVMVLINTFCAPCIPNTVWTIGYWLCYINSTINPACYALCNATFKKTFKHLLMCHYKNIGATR
Procedure: (§1) The affinity of test compounds for M2 and M3 muscarinic receptor subtypes was determined by [^3H]—N-methylscopolamine binding studies using rat heart and submandibular gland respectively as described by Moriya et al., (Life Sci., 1999,64(25):2351-2358) with minor modifications.
(§2) Membrane preparation: Submandibular glands and heart were isolated and placed in ice cold homogenizing buffer (HEPES 20 mM, 10 mM EDTA, pH 7.4) immediately after sacrifice. The tissues were homogenized in 10 volumes of homogenizing buffer and the homogenate was filtered through two layers of wet gauze and filtrate was centrifuged at 500 g for 10 min. The supernatant was subsequently centrifuged at 40,000 g for 20 min. The pellet thus obtained was resuspended in same volume of assay buffer (HEPES 20 mM, EDTA 5 mM, pH 7.4) and were stored at −70° C. until the time of assay.
(§3) Ligand binding assay The compounds were dissolved and diluted in DMSO. The membrane homogenates (150-250 μg protein) were incubated in 250 μl of assay buffer (HEPES 20 mM, pH 7.4) at 24-25° C. for 3 h. Non-specific binding was determined in the-presence of 1 μM atropine. The incubation was terminated by vacuum filtration over GF/B fiber filters(Wallac). The filters were then washed with ice cold 50 mM Tris HCl buffer (pH 7.4). The filter mats were dried and bound radioactivity retained on filters was counted. The IC50 & Kd were estimated by using the non-linear curve fitting program using G Pad Prism software. The value of inhibition constant Ki was calculated from competitive binding studies by using Cheng & Prusoff equation (Biochem Pharmacol, 1973,22: 3099-3108), Ki=IC50/(1+L/Kd), where L is the concentration of [^3H]NMS used in the particular experiment.

M3 muscarinic receptor = molecular target: T2, M3 muscarinic receptor (Rattus norvegicus, UniProt P08483); assay: Radioligand binding assay, [3H]-N-methylscopolamine, rat submandibular gland membranes; details: [3H]NMS, Ki by Cheng & Prusoff; for Ki: read-out: Receptor Binding Assay pKi M3 (converted)
T2 construct: from tissue; host or cells: rat submandibular gland membrane homogenate
T2 sequence (P08483 whole entry): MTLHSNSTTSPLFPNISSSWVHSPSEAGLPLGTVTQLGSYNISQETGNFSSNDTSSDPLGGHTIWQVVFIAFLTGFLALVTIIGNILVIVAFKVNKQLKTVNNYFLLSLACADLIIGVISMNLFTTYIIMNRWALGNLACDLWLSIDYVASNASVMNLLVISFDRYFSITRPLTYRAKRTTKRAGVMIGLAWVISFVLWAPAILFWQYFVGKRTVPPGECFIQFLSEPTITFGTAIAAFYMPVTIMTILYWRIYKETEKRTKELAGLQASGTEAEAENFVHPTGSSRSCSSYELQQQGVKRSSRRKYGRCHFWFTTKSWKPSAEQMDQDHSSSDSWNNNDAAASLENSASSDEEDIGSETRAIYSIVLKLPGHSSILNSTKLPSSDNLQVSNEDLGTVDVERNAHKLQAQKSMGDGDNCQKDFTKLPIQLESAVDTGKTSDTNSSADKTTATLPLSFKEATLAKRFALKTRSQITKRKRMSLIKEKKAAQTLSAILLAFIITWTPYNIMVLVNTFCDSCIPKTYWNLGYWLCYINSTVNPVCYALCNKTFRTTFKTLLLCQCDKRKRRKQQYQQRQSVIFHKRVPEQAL
Procedure: as §1, §2, §3

| SMILES | Functional Assay pKB (isolated rat bladder) | Ki (M2 muscarinic receptor) [nM] | Ki (M3 muscarinic receptor) [nM] | Receptor Binding Assay pKi M2 (M2 muscarinic receptor) | Receptor Binding Assay pKi M3 (M3 muscarinic receptor) |
| --- | --- | --- | --- | --- | --- |
| O=C(NC1C2CN(Cc3cccs3)CC21)C(O)(c1ccccc1)C1CCCCC1 (stereo not drawn) [Compound No. 2, (1α, 5α, 6α)-N-[3-(2-Thienylmethyl)-3-azabicyclo[3.1.0]hex-6-yl]-2-hydroxy-2-cyclohexyl-2-phenylacetamide] | 7.52 | 3160 | 129 |  |  |
| O=C(NC1C2CN(Cc3cccs3)CC21)C(O)(c1ccccc1)C1CCCC1 (stereo not drawn) [Compound No. 3, (1α, 5α, 6α)-N-[3-(2-thienylmethyl)-3-azabicyclo[3.1.0]hex-6-yl]-2-hydroxy-2-cyclopentyl-2-phenylacetamide] | 8.04 | 3980 | 525 |  |  |
| O=C(NC1C2CN(CCc3ccc(Cl)cc3)CC21)C(O)(c1ccccc1)C1CCCC1 (stereo not drawn) [Compound No. 17, (1α, 5α, 6α)-N-[3-(4-chlorophenethyl)-3-azabicyclo[3.1.0]hex-6-yl]-2-hydroxy-2-cyclopentyl-2-phenylacetamide] | 7.02 | 501 | 79.4 |  |  |
| O=C(NC1C2CN(CCCc3ccccc3)CC21)C(O)(c1ccccc1)C1CCCC1 (stereo not drawn) [Compound No. 19, (1α, 5α, 6α)-N-[3-(3-phenylpropyl)-3-azabicyclo[3.1.0]hex-6-yl]-2-hydroxy-2-cyclopentyl-2-phenylacetamide] | 7.52 | 2630 | 776 |  |  |
| CC(c1ccccc1)N1CC2C(C1)C2NC(=O)C(O)(c1ccccc1)C1CCCC1 (stereo not drawn) [Compound No. 21, (1α, 5α, 6α)-N-[3-(1-phenylethyl)-3-azabicyclo[3.1.0]hex-6-yl]-2-hydroxy-2-cyclopentyl-2-phenylacetamide] | 8.2 | 631 | 25.1 |  |  |
| Cc1ccc(C(C)N2CC3C(C2)C3NC(=O)C(O)(c2ccccc2)C2CCCC2)cc1 (stereo not drawn) [Compound No. 43, (1α, 5α, 6α)-N-[3-[1-(4-methylphenyl)ethyl]-3-azabicyclo[3.1.0]hex-6-yl]-2-hydroxy-2-cyclopentyl-2-phenylacetamide] | 6.86 | 1230 | 58.9 |  |  |
| Cc1ccc(CCN2CC3C(C2)C3NC(=O)C(O)(c2ccccc2)C2CCCC2)cc1C (stereo not drawn) [Compound No. 50] | 7.48 | 813 | 43.7 |  |  |
| CC(c1ccccc1)N1CC2C(C1)C2NC(=O)C(O)(c1ccccc1)C1CCCCC1 (stereo not drawn) [Compound No. 58, (1α, 5α, 6α)-N-[3-[1-(phenyl)ethyl]-3-azabicyclo [3.1.0]hex-6-yl]-2-hydroxy-2-cyclohexyl-2-phenylacetamide] | 7.89 | 155 | 5.89 |  |  |
| COC(=O)c1ccc(CCN2CC3C(C2)C3NC(=O)C(O)(c2ccccc2)C2CCCC2)cc1 (stereo not drawn) [Compound No. 66, (1α, 5α, 6α)-N-[3-(2-(4-methoxycarbonyl)phenyl)ethyl-3-azabicyclo[3.1.0]hex-6-yl]-2-hydroxy-2-cyclopentyl-2-phenylacetamide] | 7.67 | 537 | 43.7 |  |  |
| O=C(N[C@H]1[C@@H]2CN(CCc3ccc(CO)cc3)C[C@@H]21)C(O)(c1ccccc1)C1CCCC1 (stereo partly drawn) [Compound No. 71, (1α, 5α, 6α)-N-[3-(4-hydroxymethylphenethyl)-3-azabicyclo [3.1.0]-hex-6-yl]-2-hydroxy-2-cyclopentyl-2-phenylacetamide] | 6.8 |  |  | 6.01 | 7.37 -log M (pKi, unitless) |
| CC(c1ccccc1)N1C[C@@H]2[C@H](C1)[C@H]2NC(=O)C(O)(c1ccccc1)C1CCCCCC1 (stereo partly drawn) [Compound No. 81, (1α, 5α, 6α)-N-[3-(1-phenylethyl)-3-azabicyclo[3.1.0]-hex-6-yl]-2-hydroxy-2-cycloheptyl-2-phenylacetamide] | 7.89 |  |  | 7.27 | 8.62 -log M (pKi, unitless) |
| O=C(NC1C2CN(Cc3ccccc3)CC21)C(Cl)(c1ccccc1)C1CCCCC1 (stereo not drawn) [Compound No. 115, (1α, 5α, 6α)-N-[3-benzyl-3-azabicyclo[3.1.0]-hex-6-yl]-2-chloro-2-cyclohexyl-2-phenylacetamide] | 5.45 | > 1000 | > 1000 |  |  |
| O=C(NC1C2CN(Cc3ccccc3)CC21)C(c1ccccc1)C1CCCCC1 (stereo not drawn) [Compound No. 116, (1α, 5α, 6α)-N-[3-benzyl-3-azabicyclo[3.1.0]-hex-6-yl]-2-cyclohexyl-1-2-phenylacetamide] | 6.03 | > 1000 | > 1000 |  |  |
| O=C(NC1C2CN(Cc3ccccc3)CC21)C(O)c1ccccc1 (stereo not drawn) [Compound No. 117, (1α, 5α, 6α)-N-[3-benzyl-3-azabicyclo[3.1.0]-hex-6-yl]-2-hydroxy-2-phenylacetamide] | 5.08 | > 1000 | > 1000 |  |  |
| CC(C)=CCCN1CC2C(C1)C2N(C)C(=O)C(O)(c1ccccc1)C1CCCC1 (stereo not drawn) [Compound No. 125, N-methyl-N-(1α, 5α, 6α)-N-[3-(4-methyl-3-pentenyl)-3-azabicyclo[3.1.0]-hex-6-yl]-2-cyclopentyl-2-hydroxy-2-phenylacetamide] | 8.36 | 24.5 | 26.3 |  |  |
